Test results published in patent US11118204B2, “Switchable ionic liquids for biomass pretreatment and enzymatic hydrolysis” (National Technology & Engineering Solutions of Sandia, LLC, priority 2014, dated 2021).
Several values for one entry are separate records, joined by “and”; a condition that tells them apart may be missing. Identical values can stand only once.

Legend:
[1] = ionic liquid solution
[2] = test system: Ctec2; experiment: Ctec2 stability in ionic liquids (residual activity, T50^30); format: biochemical; details: for T50^30 (temperature at which enzyme activity is reduced by 50% following 30-minute pre-incubation): Ctec2 pre-incubated 38-80° C. in IL at 5-20%, substrates CMC, PNP-cellobiose, PNP-glucopyranoside, FIG. 1
Protocol: Enzyme stability was monitored by residual activity measurements. Ctec2 was diluted 200-fold into nine ionic liquid or buffer solutions at concentrations from 1-20 wt %. Each enzyme solution was then divided into 18 wells in a thin-walled PCR plate and incubated in thermal […] (Applied Biosystems, Veriti) at temperatures from 38-80° C. for 30 minutes. […] CMC reaction end-points were analyzed by DNS assay to detect reducing sugars. The end-points of the paranitrophenol reactions were measured by absorbance at 405 nm. […] Error was estimated by replication of both the incubation and activity measurement steps. Some solution conditions produced clearly bi-modal inactivation curves; in these cases the larger of the two transitions was reported. […] To capture the stability differences for several different enzyme classes in the multicomponent commercial enzyme mixture, the T50^30 was measured on three different representative substrates: carboxymethylcellulose (CMC), 4-Nitrophenyl β-D-glucopyranoside (PNP-glucopyranoside) and 4-Nitrophenyl β-D-cellobiose (PNP-cellobiose). […] In FIG. 1, data for acetate-based ionic liquids are shown in the left-hand panels: [Em][Ac] (open circle, solid line); [Ch][Ac] (closed circle, solid line); [Na][Ac], pH 5.2 at 25° C. (closed circle, dashed line). Data for glutamic acid-based ionic liquids are shown in the center panels: […] [Ch]2[Glu] (closed triangle, solid line); […] (open circle, dashed line). Data for succinic acid-based ionic liquids are shown in the right-hand panels: […] [Na][Sc], pH 5.2 at 25° C. (closed square, dashed line); […]

[3] = Switchgrass pretreatment in ionic liquid and enzymatic hydrolysis (sugar conversion); details: for pretreatment efficiency on dilution of the ionic liquid: 120° C., 3 hrs, FIG. 2B; for biomass pretreatment effectiveness (sugar conversion): pretreatment in neat ionic liquid at 90 or 120° C., hydrolysis in 50 mM sodium succinate pH 5.2, FIG. 2A
Protocol: Putnam Switchgrass (20 mesh—2 mm particle size) was used as the biomass for all experiments. Samples used to determine the pretreatment and dilution efficiency were washed free of ionic liquid with de-ionized water, and re-suspended in 50 mM sodium succinate buffer at pH 5.2. All enzyme hydrolysis reactions were performed with shaking at 50° C. and 20 mg/g 9:1 Ctec2:Htec, unless otherwise specified. Small-scale, one-pot reactions were performed in 2 ml screw-cap vials in heating blocks without mixing with 100 mg biomass at the specified ionic liquid concentration and biomass loading. Reactions were then acidified with 1 eq. of the free acid in the same vial and transferred to shaker incubators for the enzymatic hydrolysis. Larger scale one-pot reactions were performed in glass pressure tubes (Ace Glass, USA) with 2 g or 4 g biomass (Table 1). Liberated glucose and xylose were quantified with an Agilent HPLC using a Bio-Rad Aminex […] column with a 4 mM sulfuric acid mobile phase.
Data for pretreatment at 90° C. and 120° C. is shown using white bars and black bars, respectively. […] (white bars), and dilution of the ionic liquid to 25% with water.
For the data in FIG. 2C, samples were pretreated at 90° C. or 120° C., with various % IL in the liquid fraction and different wt % biomass loadings. All samples were then hydrolyzed at 25% IL concentration with 9:1 Ctec2:Htec at 20 mg/g biomass. White bars, 90° C., 16 hrs; gray bars, 120° C., 3 hrs; black bars, 120° C., 16 hrs.
In FIG. 3A and FIG. 3B, the circles represent data obtained using 10 wt % ionic liquid and the squares represent data obtained using 25 wt % ionic liquid.

[4] = corn stover, 25 wt % ionic liquid
[5] = [Em][Ac] (20%) acidified with acetic acid to pH ~5

Choline lysinate [[Ch][Lys], reference compound]
solution pH [1]: ~14 and ~12 | T50^30 (temperature at which enzyme activity is reduced by 50% following 30-minute pre-incubation) [2]: similarly low

C[N+](C)(C)CCO.C[N+](C)(C)CCO.N[C@@H](CCC(=O)[O-])C(=O)[O-] [[Ch]2[Glu], (choline)2 glutamate]
performance (glucose yield) relative to the neat ionic liquid ([3]; 25% solution, pretreatment 120° C., 16 hours, one-pot): ~90% | pretreatment efficiency on dilution of the ionic liquid [3]: consistently high pretreatment efficiency | biomass pretreatment effectiveness (sugar conversion) [3]: marked improvement | solution pH [1]: 10-11 | glucose yield [4]: ~95% | T50^30 (temperature at which enzyme activity is reduced by 50% following 30-minute pre-incubation) [2]: lowest | CTec2 activity ([2]; at the lowest ionic liquid concentrations): very low

Choline succinate [[Ch][Sc]]
biomass pretreatment effectiveness (sugar conversion) [3]: poorly

C[N+](C)(C)CCO.C[N+](C)(C)CCO.O=C([O-])C(=O)[O-] [[Ch]2[oxalic acid], reference compound]
Glucose conversion ([3]; ionic liquid used neat): 48% | glucose conversion above hot water pretreatment ([3]; ionic liquid used neat): ~15%

choline glutamate [[Ch][Glu]]
Glucose conversion ([3]; 10 wt % IL, 10% switchgrass, pretreatment at 120° C. with [Ch]2[Glu], one-pot hydrolysis with CTec2): 91% | Glucose conversion ([3]; 25 wt % IL, 10% switchgrass, pretreatment at 120° C. with [Ch]2[Glu], one-pot hydrolysis with CTec2): 82% | biomass pretreatment effectiveness (sugar conversion) [3]: poorly

C[N+](C)(C)CCO.C[N+](C)(C)CCO.O=C([O-])CCC(=O)[O-] [[Ch]2[Sc], (choline)2 succinate]
pretreatment efficiency on dilution of the ionic liquid [3]: monotonic decrease in efficiency | sugar release relative to [Ch][Glu] ([3]; pretreatment at 120° C.): twice as much sugar | biomass pretreatment effectiveness (sugar conversion) [3]: marked improvement | solution pH [1]: ~7

CC(=O)[O-].CCn1cc[n+](C)c1 [[Em][Ac], 1-ethyl-3-methylimidazolium acetate]
stability of the commercial enzyme mixture on CMC [2, 5]: slightly | stability of the commercial enzyme mixture on the para-nitrophenol substrates [2, 5]: decreased significantly
